# PMC4486710 (Parasites & Vectors, 2015)
# T1: TcCAT1.1 (Trypanosoma cruzi, UniProt A0A0H4FPU8)
# T1 construct: gene C3747_66g20; full-length ORF, untagged, pYES2, expressed in S. cerevisiae HSC100-3C (can1 gap1 lyp1); 10 predicted transmembrane helices
# T1 sequence (A0A0H4FPU8 1-448): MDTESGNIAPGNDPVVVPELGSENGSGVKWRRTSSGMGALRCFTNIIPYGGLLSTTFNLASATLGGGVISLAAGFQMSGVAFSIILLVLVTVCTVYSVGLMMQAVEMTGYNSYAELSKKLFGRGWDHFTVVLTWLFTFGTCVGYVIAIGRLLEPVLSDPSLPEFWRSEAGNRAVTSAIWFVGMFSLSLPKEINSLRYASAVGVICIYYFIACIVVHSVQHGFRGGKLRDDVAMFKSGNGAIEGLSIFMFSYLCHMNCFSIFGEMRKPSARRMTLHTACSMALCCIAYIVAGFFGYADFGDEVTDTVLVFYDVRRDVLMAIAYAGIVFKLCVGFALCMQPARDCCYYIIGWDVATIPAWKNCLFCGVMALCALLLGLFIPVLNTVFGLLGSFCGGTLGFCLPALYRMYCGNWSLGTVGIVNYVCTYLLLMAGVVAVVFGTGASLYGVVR
# Biological target: T1, TcCAT1.1
# Assay: competition of [3H]-arginine uptake in transformed S. cerevisiae
# Assay type: cell-based
# Details: 1000 µM; 10 µM [3H]-arginine, 1 mM competitor, 30 min, room temperature
# Text: competition of [3H]-arginine uptake in transformed S. cerevisiae on TcCAT1.1
row,Molecule,[^3H]-Arginine uptake(%)
1,NC(=O)C[C@H](N)C(=O)O [asparagine],78.0 ± 6.1%
2,C[C@H](N)C(=O)O [alanine],67.9 ± 2.6%
3,NC(=O)CC[C@H](N)C(=O)O [glutamine],74.2 ± 25.6%
4,NCCCNCCCCNCCCN [spermine],65.0 ± 6.6%
5,N[C@@H](Cc1cnc[nH]1)C(=O)O [histidine],67.3 ± 8.8%
6,N=C(N)NCCCC[C@H](N)C(=O)O [homoarginine],65.5 ± 12.1%
7,CC(C)C[C@H](N)C(=O)O [leucine],67.7 ± 16.2%
8,NCCCC[C@H](N)C(=O)O [lysine],78.0 ± 26.7%
9,O=C(O)[C@@H]1CCCN1 [proline],72.3 ± 12.1%

# Same assay, conditions: 1000 µM; 10 µM [3H]-arginine, 1 mM competitor, 30 min, room temperature; possible substrate
row,Molecule,[^3H]-Arginine uptake(%)
1,N=C(N)NOCC[C@H](N)C(=O)O [canavanine],28.9 ± 6.3%

# Substrate: N=C(N)NCCC[C@H](N)C(=O)O
# Assay: radiolabelled uptake in transformed S. cerevisiae, Michaelis-Menten fit
# Assay type: cell-based, Trypanosoma cruzi
# Details: labelled compound; glucose-repressed background subtracted; three trials
# Text: radiolabelled uptake in transformed S. cerevisiae, Michaelis-Menten fit on TcCAT1.1
row,Molecule,Km
1,"TcCAT1.1 (Trypanosoma cruzi) (protein, full-length ORF, untagged, pYES2, expressed in S. cerevisiae HSC100-3C (can1 gap1 lyp1); 10 predicted transmembrane helices) MDTESGNIAPGNDPVVVPELGSENGSGVKWRRTSSGMGALRCFTNIIPYGGLLSTTFNLASATLGGGVISLAAGFQMSGVAFSIILLVLVTVCTVYSVGLMMQAVEMTGYNSYAELSKKLFGRGWDHFTVVLTWLFTFGTCVGYVIAIGRLLEPVLSDPSLPEFWRSEAGNRAVTSAIWFVGMFSLSLPKEINSLRYASAVGVICIYYFIACIVVHSVQHGFRGGKLRDDVAMFKSGNGAIEGLSIFMFSYLCHMNCFSIFGEMRKPSARRMTLHTACSMALCCIAYIVAGFFGYADFGDEVTDTVLVFYDVRRDVLMAIAYAGIVFKLCVGFALCMQPARDCCYYIIGWDVATIPAWKNCLFCGVMALCALLLGLFIPVLNTVFGLLGSFCGGTLGFCLPALYRMYCGNWSLGTVGIVNYVCTYLLLMAGVVAVVFGTGASLYGVVR",85 ± 40 µM
